Legend:
normal human melanocytes = assay: differentiation of normal human melanocytes after continuous or transient hormone exposure (melanin, RNAseq, Western blot); type: cell-based; conditions: normal human melanocytes, hormone or agonist exposure
Method: FIG. 11A: Long-term melanin assay in which normal human melanocytes were transiently treated with progesterone (P4), or estrogen (E2). Subsets of these groups (Red) were treated with an additional transient pulse of P4 at Day 27. Error bars equal the standard deviation of the samples. FIG. 11B: Western blot of melanocyte differentiation markers after a transient, 4-day treatment with either vehicle or estrogen, followed by an 8 day withdraw period. FIG. 11C: Experimental timeline of estrogen or GPER agonist (G-1) pre-treatment of mouse and human melanoma cells, n=5 per group. FIG. 11D: Relative tumor weights of mouse and human melanomas pre-treated with estrogen, * denotes significance by the Mann-Whitney test. FIG. 11E: Relative tumor weights of mouse and human melanomas pre-treated with G-1, * denotes significance by the Mann-Whitney test.
Normal human melanocytes received a pulse-treatment of estrogen—this consisted of 4 days of estrogen treatment followed by an 8 day withdraw.
To test whether pregnancy-associated hormones induce long-lasting changes in melanocyte differentiation that may affect their future susceptibility to transformation, primary human melanocytes were transiently exposed to estrogen or progesterone (FIGS. 11A-11E).
A subset of cells differentiated by transient exposure to estrogen was subsequently treated with progesterone.

[1] = tested on: pCREB and c-Myc in NSCLC line LLC1; assay: Western blot of LLC1 cells treated with G-1; type: cell-based; conditions: LLC1, 500 nM
Method: FIGS. 18A-18G illustrate the finding that GPER signaling reduces NSCLC cell proliferation in vitro and in vivo and has combinatorial effects with αPD-1 immunotherapy. FIG. 18A: Western blot for pCREB of LLC1 cells treated with 500 nM G-1 for 30 minutes. FIG. 18B: Proliferation assay of LLC1 treated with 500 nM G-1 for 6 days. FIG. 18C: Western blot for c-Myc of LLC1 cells treated with 500 nM G-1 for 6 days. FIG. 18D: Western blot for c-Myc of LLC1 cells treated with 500 nM G-1 over a time-course. […] FIG. 18F: Tumor volumes over time of LLC1 tumor bearing mice treated with vehicle or G-1, as well as αPD-1 antibody or isotype antibody control (2A3). FIG. 18G: Survival curve of mice treated with vehicle or G-1, as well as αPD-1 antibody or isotype antibody control (2A3).
Reproductive history influences lung cancer as well. Women have a decreasing risk of lung cancer correlated with the number children they have had.

B16F10 melanoma = assay: B16F10 melanoma-bearing syngeneic mice treated with subcutaneous G-1, αPD-1 antibody, or both; type: in vivo
Excerpt: FIGS. 14A-14F illustrate the finding that treatment of melanoma bearing mice with G-1 and αPD-1 immunotherapy dramatically extends survival. FIG. 14A: Experimental timeline of B16F10 bearing mice treated with vehicle or G-1, as well as αPD-1 antibody or isotype antibody control (2A3), n=10 per group. FIG. 14B: Tumor volumes of treatment groups at Day 14, * denotes significance One-way ANOVA with Tukey's multiple comparison test. FIG. 14C: Survival curve of mice treated with vehicle or G-1, as well as isotype antibody control (2A3) or αPD-1 antibody. FIG. 14D: Experimental outline of YUMM1.7 bearing mice treated with vehicle or G-1, as well as isotype antibody control (2A3) or αPD-1 antibody. Treatment was started at day 14 after tumors reached 4-5 mm in diameter. n=5 per group. FIG. 14E: Tumor volumes over time of treatment groups. FIG. 14F: Survival curve of mice treated with vehicle or G-1, as well as αPD-1 antibody or isotype antibody control (2A3).
To determine whether G-1 has therapeutic utility as a systemically delivered agent with or without immune checkpoint inhibitors, B16F10 melanoma-bearing syngeneic mice were treated with subcutaneous G-1, αPD-1 antibody, or both, and survival compared to matched mice treated with vehicle and isotype antibody controls (in particular, non-specific isotype control antibody 2A3) (FIG. 14A). Total tumor volume was assessed after 5-50 days.

## CC(=O)c1ccc2c(c1)[C@@H]1C=CC[C@@H]1[C@H](c1cc3c(cc1Br)OCO3)N2 (relative stereo) [Compound G-1, rel-1-[4-(6-bromo-1,3-benzodioxol-5-yl)-3aR,4S,5,9bS-tetrahydro-3H-cyclopenta[c]quinolin-8-yl]-ethanone]
Normal human melanocytes
  melanocyte differentiation state (melanin pigment production): increase the differentiation state of human melanocytes
[1]; 30 minutes
  pCREB levels: elevated pCREB levels
[1]; long-term treatment (6 days)
  c-Myc protein: reduction of c-Myc protein
B16F10 melanoma; B16F10-bearing mice
  tumor growth: slowed tumor growth
B16F10 melanoma; B16F10-bearing mice, subcutaneous G-1
  survival: extended survival to the same extent as αPD-1
B16F10 melanoma; mice
  tolerability: well tolerated
